From patent EP1247803A2, “Indolinone compounds suitable for modulation of protein kinases” (Sugen, Inc., priority 1996, dated 1998)

Tests used:
EGFR = molecular target: T1, EGFR (Homo sapiens, UniProt P00533); assay: EGFR ELISA assay (in vitro kinase activity, EGFR captured from A431 cell lysate); type: biochemical; set-up: concentration or dose not given beside the values
T1 construct: Add 7 ug A431 cell lysate per well (EGFR source); endogenous in cells; host or cells: A431
Outline: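 Receptor autophosphorylation was read by ELISA: anti-phosphotyrosine serum and an HRP-linked secondary with ABTS substrate, absorbance at 410 nm (reference 630 nm). The reaction ran 5 min with 3 µM ATP and 5 mM MnCl2 and was quenched by 20 mM EDTA. Compounds were first incubated 30 min with antibody-captured EGFR from A431 cell lysate.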

MET = MET biochemical kinase assay; set-up: species or system human; concentration or dose not given beside the values
Outline: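 Lysate-derived MET, or chimeric receptors, is immobilised on plates through an antibody to the human MET cytoplasmic region. Compounds are added along with kinase buffer supplying ATP and divalent metal ions, and receptor autophosphorylation is quantified by anti-phosphotyrosine ELISA.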

T1 sequence (P00533 25-1210): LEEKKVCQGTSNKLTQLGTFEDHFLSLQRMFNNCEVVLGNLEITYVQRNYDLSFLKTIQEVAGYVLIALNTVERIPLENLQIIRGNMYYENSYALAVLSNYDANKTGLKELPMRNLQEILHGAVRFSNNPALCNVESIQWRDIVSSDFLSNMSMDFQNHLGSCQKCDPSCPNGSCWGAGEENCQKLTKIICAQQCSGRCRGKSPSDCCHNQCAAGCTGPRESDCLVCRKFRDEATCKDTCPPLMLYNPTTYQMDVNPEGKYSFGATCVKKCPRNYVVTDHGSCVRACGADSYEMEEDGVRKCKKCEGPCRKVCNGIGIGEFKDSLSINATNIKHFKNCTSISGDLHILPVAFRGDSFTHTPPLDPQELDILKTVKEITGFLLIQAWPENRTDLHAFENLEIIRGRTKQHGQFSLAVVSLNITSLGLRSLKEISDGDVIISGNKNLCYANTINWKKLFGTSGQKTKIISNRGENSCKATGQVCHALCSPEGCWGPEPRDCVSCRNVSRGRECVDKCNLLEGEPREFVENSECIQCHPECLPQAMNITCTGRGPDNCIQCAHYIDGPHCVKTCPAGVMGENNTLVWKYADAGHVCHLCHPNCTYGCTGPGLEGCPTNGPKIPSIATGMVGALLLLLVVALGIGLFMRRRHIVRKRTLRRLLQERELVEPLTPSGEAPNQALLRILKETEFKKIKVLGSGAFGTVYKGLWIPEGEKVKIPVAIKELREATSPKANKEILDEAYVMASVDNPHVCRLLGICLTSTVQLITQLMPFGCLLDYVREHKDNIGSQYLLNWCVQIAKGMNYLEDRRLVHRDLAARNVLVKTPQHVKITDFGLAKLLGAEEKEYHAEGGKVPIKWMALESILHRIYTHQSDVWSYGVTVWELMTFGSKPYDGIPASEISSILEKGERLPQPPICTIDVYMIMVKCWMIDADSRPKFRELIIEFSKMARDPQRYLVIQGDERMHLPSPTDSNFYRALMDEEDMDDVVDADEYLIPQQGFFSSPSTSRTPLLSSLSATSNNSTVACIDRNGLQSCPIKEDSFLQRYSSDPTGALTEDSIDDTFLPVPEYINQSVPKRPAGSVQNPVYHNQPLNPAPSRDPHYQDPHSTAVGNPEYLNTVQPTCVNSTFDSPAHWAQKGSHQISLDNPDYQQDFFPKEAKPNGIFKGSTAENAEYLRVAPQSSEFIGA

| SMILES | Biochem EGFR %Inhibition (EGFR) [%] | Met Kinase % Inhibition (MET) [%] |
| --- | --- | --- |
| CNS(=O)(=O)c1ccc2c(c1)C(=Cc1ccc(OC)c(OC)c1)C(=O)N2 [10720/D04] | -7.7 | 23.6 |
| Cc1c(Br)ccc2c1C(=Cc1c[nH]c3ccccc13)C(=O)N2 [10717/C06] | -49.7 | 44.1 |
| Cn1cc(Cl)c(C=C2C(=O)Nc3c(Br)cc(Br)cc32)n1 [10721/A03] | 25.5 | 56.2 |
| O=C1Nc2ccc(S(=O)(=O)N3CCOCC3)cc2C1=Cc1ccccc1 [10720/F06] | -24.3 | 21.9 |
| COc1cc(O)ccc1C=C1C(=O)Nc2ccc(CCCl)cc21 [10720/G03] | 10.0 | 42.1 |
| Cc1c(Br)ccc2c1C(=Cc1ccc[nH]1)C(=O)N2 [10717/C09] | 8.1 | 47.7 |
| O=C1Nc2ccc(I)cc2C1=Cc1cc2c([nH]1)CCCC2 [10721/B05] | 76.8 | 70.8 |
| O=C1Nc2ccc(CCCl)cc2C1=Cc1ccccc1O [10720/G05] | 27.0 | 37.0 |
| Cc1c(Br)ccc2c1C(=Cc1ccc(Cl)s1)C(=O)N2 [10721/C07] | 24.6 | 25.7 |
| Cc1cc(O)cc(O)c1C=C1C(=O)Nc2ccc(CCCl)cc21 [10720/G08] | -9.5 | 26.7 |
| CSc1ccc(C=C2C(=O)Nc3ccc(CCCl)cc32)s1 [10720/G07] | -8.0 | 12.9 |
| Cc1c(Br)ccc2c1C(=Cc1cc3c([nH]1)CCCC3)C(=O)N2 [10721/C05] | 68.1 | 48.7 |
| Cc1c(Br)ccc2c1C(=Cc1ccc(Br)cc1)C(=O)N2 [10717/C08] | 24.3 | 27.3 |
| Cc1cc(O)cc(O)c1C=C1C(=O)Nc2ccc(S(=O)(=O)N3CCOCC3)cc21 [10720/F08] | -39.6 | 36.2 |
| O=C1Nc2ccc(S(=O)(=O)Nc3ccc(C(F)(F)F)cc3)cc2C1=Cc1c(F)cc(F)cc1F [10720/E02] | 25.2 | 18.0 |
| Cc1c(Br)ccc2c1C(=Cc1nc3ccccc3n1C)C(=O)N2 [10721/C02] | 68.3 | 59.2 |
| CNS(=O)(=O)c1ccc2c(c1)C(=Cc1ccccc1)C(=O)N2 [10720/D06] | -35.0 | 31.8 |
| CC(C)(C)c1cc(C=C2C(=O)Nc3c(Br)cc(Br)cc32)ccc1O [10721/A09] | 28.0 | 23.0 |
| COc1ccc(O)c(C=C2C(=O)Nc3ccc(CCCl)cc32)c1 [10720/G10] | 20.4 | 55.9 |
| CNS(=O)(=O)c1ccc2c(c1)C(=Cc1[nH]c(C)cc1C)C(=O)N2 [10721/D08] | 31.7 | 45.3 |

| SMILES | Biochem EGFR %Inhibition (EGFR) [%] | Met Kinase % Inhibition (MET) [%] |
| --- | --- | --- |
| COc1ccc(C=C2C(=O)Nc3ccc(S(=O)(=O)Nc4ccc(C(F)(F)F)cc4)cc32)cc1OC [10720/E04] | -2.7 | 46.7 |
| CSc1ccc(C=C2C(=O)Nc3ccc(S(=O)(=O)Nc4ccc(C(F)(F)F)cc4)cc32)s1 [10720/E07] | 55.1 | 30.3 |
| COc1ccc(C=C2C(=O)Nc3ccc(S(=O)(=O)N4CCOCC4)cc32)cc1OC [10720/F04] | -11.7 | 43.1 |
| CCOc1ccccc1C=C1C(=O)Nc2c(Br)cc(Br)cc21 [10717/A02] | 24.3 | 46.1 |
| CC(C)(C)c1cc(C=C2C(=O)Nc3c(Br)cc(Br)cc32)cc(Br)c1O [10721/A10] | 31.1 | 68.9 |
| CNS(=O)(=O)c1ccc2c(c1)C(=Cc1c(C)cc(O)cc1O)C(=O)N2 [10720/D08] | -13.3 | 42.1 |
| O=C1Nc2c(Br)cc(Br)cc2C1=Cc1cc2c([nH]1)CCCC2 [10721/A05] | 41.4 | 52.9 |
| CC(C)(C)c1cc(C=C2C(=O)Nc3ccc(I)cc32)ccc1O [10721/B09] | 38.9 | 28.3 |
| Cc1ccc(C=C2C(=O)Nc3ccc(Br)c(C)c32)s1 [10717/C07] | 28.7 | 16.5 |
| CCOc1cc(C=C2C(=O)Nc3ccc(S(=O)(=O)N4CCOCC4)cc32)ccc1O [10720/F09] | 6.4 | 49.2 |
| O=C1Nc2ccc(S(=O)(=O)N3CCOCC3)cc2C1=Cc1c(F)cc(F)cc1F [10720/F02] | -19.3 | 17.8 |
| CCOc1cc(C=C2C(=O)Nc3ccc(CCCl)cc32)ccc1O [10720/G09] | -19.7 | 49.5 |
| Cn1c(C=C2C(=O)Nc3c(Br)cc(Br)cc32)nc2ccccc21 [10721/A02] | 17.8 | 41.1 |
| O=C1Nc2ccc(S(=O)(=O)N3CCOCC3)cc2C1=Cc1ccccc1O [10720/F05] | -14.2 | 39.8 |
| O=C1Nc2ccc(CCCl)cc2C1=Cc1c(F)cc(F)cc1F [10720/G02] | -13.1 | 20.1 |
| O=C1Nc2ccc(CCCl)cc2C1=Cc1ccccc1 [10720/G06] | -10.4 | 21.6 |
| O=C1Nc2ccc(S(=O)(=O)Nc3ccc(C(F)(F)F)cc3)cc2C1=Cc1ccccc1 [10720/E06] | 30.1 | 33.1 |
| Cc1c(Br)ccc2c1C(=Cc1nn(C)cc1Cl)C(=O)N2 [10721/C03] | 64.6 | 6.2 |
| Cc1c(Br)ccc2c1C(=Cc1cccn1C)C(=O)N2 [10717/C04] | 14.4 | 25.0 |
| Cc1cc(C)c(C=C2C(=O)Nc3c(Br)cc(Br)cc32)[nH]1 [10721/A08] | 24.0 | 29.9 |

| SMILES | Biochem EGFR %Inhibition (EGFR) [%] | Met Kinase % Inhibition (MET) [%] |
| --- | --- | --- |
| CNS(=O)(=O)c1ccc2c(c1)C(=Cc1nn(C)cc1Cl)C(=O)N2 [10721/D03] | 11.6 | 19.5 |
| O=C1Nc2ccc(S(=O)(=O)Nc3ccc(C(F)(F)F)cc3)cc2C1=Cc1ccccc1O [10720/E05] | 40.7 | 55.4 |
| Cc1cc(O)cc(O)c1C=C1C(=O)Nc2ccc(S(=O)(=O)Nc3ccc(C(F)(F)F)cc3)cc21 [10720/E08] | 37.4 | 55.1 |
| CC(C)(C)c1cc(C=C2C(=O)Nc3ccc(I)cc32)cc(C(C)(C)C)c1O [10721/B11] | 34.6 | 6.7 |
| O=C1Nc2ccc(S(=O)(=O)N3CCOCC3)cc2C1=Cc1ncc[nH]1 [10720/F11] | -61.1 | 1.6 |
| O=C1Nc2ccc(CCCl)cc2C1=Cc1ncc[nH]1 [10720/G11] | -56.7 | 36.2 |
| CCOc1cc(C=C2C(=O)Nc3ccc(S(=O)(=O)Nc4ccc(C(F)(F)F)cc4)cc32)ccc1O [10720/E09] | 56.4 | 43.4 |
| Cc1c(Br)ccc2c1C(=Cc1ccc(F)cc1)C(=O)N2 [10717/C05] | 13.1 | 44.6 |
| COc1cc(O)ccc1C=C1C(=O)Nc2ccc(S(=O)(=O)N3CCOCC3)cc21 [10720/F03] | 7.1 | 44.1 |
| Cc1c(Br)ccc2c1C(=Cc1cc(C(C)(C)C)c(O)c(C(C)(C)C)c1)C(=O)N2 [10721/C11] | 14.1 | 3.7 |
| CNS(=O)(=O)c1ccc2c(c1)C(=Cc1ccc(Cl)s1)C(=O)N2 [10721/D07] | 23.0 | -6.8 |
| Cc1[nH]c(C=C2C(=O)Nc3ccc(Br)c(C)c32)c(Br)c1Br [10717/C11] | 67.3 | 71.8 |
| CNS(=O)(=O)c1ccc2c(c1)C(=Cc1ncc[nH]1)C(=O)N2 [10720/D11] | -5.5 | 23.9 |
| CSc1ccc(C=C2C(=O)Nc3ccc(S(=O)(=O)N4CCOCC4)cc32)s1 [10720/F07] | 35.2 | 64.6 |
| COc1ccc(O)c(C=C2C(=O)Nc3ccc(S(=O)(=O)Nc4ccc(C(F)(F)F)cc4)cc32)c1 [10720/E10] | 49.1 | 23.1 |
| COc1ccc(C=C2C(=O)Nc3ccc(CCCl)cc32)cc1OC [10720/G04] | -34.1 | 5.0 |
| CNS(=O)(=O)c1ccc2c(c1)C(=Cc1cc(C)c(C)s1)C(=O)N2 [10721/D04] | 5.0 | 35.3 |
| O=C1Nc2c(Br)cc(Br)cc2C1=Cc1ccc(Cl)s1 [10721/A07] | 35.2 | 29.7 |
| CNS(=O)(=O)c1ccc2c(c1)C(=Cc1cc(OC)ccc1O)C(=O)N2 [10720/D10] | -10.2 | 51.0 |
| Cc1c(Br)ccc2c1C(=Cc1cc([N+](=O)[O-])cc(CCl)c1O)C(=O)N2 [10721/C06] | 80.2 | 56.4 |
